Experimental data as given in US10736857B2, “Treatment of pervasive developmental disorders with redox-active therapeutics” (PTC Therapeutics, Inc., priority 2008, dated 2020).

Tested on: Human Dermal Fibroblasts from Autistic Patients (ASD fibroblasts)
Experiment: Rescue of ASD fibroblasts stressed by addition of L-buthionine-(S,R)-sulfoximine (BSO), Calcein AM viability read-out
Assay type: cell-based
Conditions: Fibroblast, 1 mM final BSO, 48 hours, Calcein AM fluorescence, viability relative to non-BSO treated fibroblasts (100%), tested three times, read-out: EC50, protection against ASD (rescue of BSO-stressed ASD fibroblasts)
Method: A screen was performed to identify compounds effective for the amelioration of ASD. Test samples, and solvent controls were tested for their ability to rescue ASD fibroblasts stressed by addition of L-buthionine-(S,R)-sulfoximine (BSO).
MEM (a medium enriched in amino acids and vitamins, catalog no. Gibco 11965) and Fetal Calf Serum were obtained from Invitrogen. Basic fibroblast growth factor and epidermal growth factor were purchased from PeproTech. Penicillin-streptomycin-glutamine mix, L-buthionine (S,R)-sulfoximine, and insulin from bovine pancreas were purchased from Sigma. Calcein AM was purchased from Molecular Probes. Cell culture medium (ATP) was made by combining 75 ml Fetal Calf Serum, 100 U/ml penicillin, 100 μg/ml streptomycin, 2 mM glutamine, 10 ng/ml EGF, and 10 ng/ml bFGF; MEM EBS was added to make the volume up to 500 ml. A 10 mM BSO solution was prepared by dissolving 444 mg BSO in 200 ml of medium with subsequent filter-sterilization. […]
100 μl of PBS containing 1.2 μM Calcein AM were then added to each well. […] After that time the PBS was discarded, the plate gently tapped on a paper towel and fluorescence (excitation/emission wavelengths of 485 nm and 525 nm, respectively) was read on a Gemini fluorescence reader. […]
The viability of non-BSO treated fibroblasts was set as 100%, and the viability of the BSO- and compound-treated cells was calculated as relative to this value.

SMILES | EC50 [nM]
CCCCCCCCCC1=C(C)C(=O)C(C)=C(C)C1=O [2,3,5-trimethyl-6-nonylcyclohexa-2,5-diene-1,4-dione] | < 150
CC(C)=CCC/C(C)=C/CC/C(C)=C/CCC(C)(O)CCC1=C(C)C(=O)C(C)=C(C)C1=O (centres unmarked) [2-(3-hydroxy-3,7,11,15-tetramethylhexadeca-6,10,14-trienyl)-3,5,6-trimethylcyclohexa-2,5-diene-1,4-dione] | < 150
